Earlier results on 19 molecules are cited in US20230165842A1, “NEW USES” (priority 2020, published 2023).

By IC50 is commonly meant the concentration at which inhibition is half-maximal.

Read-outs that look alike come from different tables or passages of the source.

Series [1] has as its system COVID-19 cases. As to conditions: conclusion for the named statins.
In series [2] the test system is Covid positive patients.
Series [3] has as its system adults with confirmed SARS-CoV-2 infection.
Series [4] has as its system hospitalised Covid-19 patients.
Series [5] concerns dysgeusia in COVID positive patients.
Series [6] relates to SARS-CoV-2 Spike pseudotyped virus. To be noted: ACE2h HEK293T cells; Control = 1.
The test system of series [7] is SARS-CoV-2.
Series [8] deals with COVID-19-induced pulmonary fibrosis.
Series [9] has as its system COVID-19 ARDS patients.
Series [10] has as its system SARS-CoV-2. To be noted: Vero E6.
The test system of series [11] is SARS-CoV-2. To be noted: Calu-3.
The test system of series [12] is Vero E6.
Series [13] deals with Calu-3.
The test system of series [14] is SARS-CoV-2. As to conditions: Vero E6; for IC50: 2 h pre-treatment, 24 h.
Series [15] has as its system Vero E6 cells. As to conditions: Vero E6.
The test system of series [16] is SARS-CoV-2. On the set-up: Reducing Viral propagation: concentration or dose not given beside the values. As to conditions: Vero E6; MOI=0.0005.
The subject of series [17] is SARS-CoV-2. As to conditions: Vero cells; 2 h pre-treatment; vs DMSO control; p<0.0001.
Series [18] concerns SARS-CoV-2. As to conditions: concentration dependent; data not shown.
[19] abbreviates: six weeks after initiation of therapy.

Consider `CC(C)c1c(C(=O)Nc2ccccc2)c(-c2ccccc2)c(-c2ccc(F)cc2)n1CC[C@@H](O)C[C@@H](O)CC(=O)O` [Compound 8, atorvastatin], for which the “mortality in patients infected with COVID-19” value in series [1] is on record as “may reduce mortality”.

Regarding `COCCCC/C(=N\OCCN)c1ccc(C(F)(F)F)cc1` [Compound 34, fluvoxamine], the “incidence of subsequent hospitalization” value in series [2] (0 of 65, vs 12.5% with observation) is 0%. In series [2] (0 of 65, vs 60% with observation alone), the “ongoing symptoms present at day 14” value is given as 0%. The serious adverse events entry in series [2] (50 mg twice daily for 14 days) is on record as “No serious adverse events”. The “Respiratory Rate” value in series [2] (Day 1, N = 65) was 17.7 ± 2.9. In addition, in [2] (Day 7, N = 65), the “Respiratory Rate” value is listed as 12.9 ± 1.6. In addition, in [2] (N = 65), the “Hospitalized within 14 days (patients)” value is 0, the “ICU care and/or Death (patients)” value was 0, the “Symptoms at Day 14: 1-3 (patients)” value was 0 and the “Symptoms at Day 14: 4-6 (patients)” value is 0. In series [2] (N = 65), the “Symptoms at Day 14: None (patients)” value was 65 and the “Symptoms at Day 14: ≥7 (patients)” value is recorded as 0. In [2] (human, in vivo), the “adverse events leading to early discontinuation” value is listed as “No adverse events led to early discontinuation”. The “serious adverse event (number)” value in series [3] (fluvoxamine group, placebo 6) is 1. Further, in [3] (fluvoxamine group, placebo 12), the “other adverse events (number)” value is on record as 11. Moreover, in series [3] (fluvoxamine vs placebo), the “Absolute difference (95% CI), any nonzero value” is reported as −8.3%; the “Absolute difference (95% CI), clinical deterioration” value was 8.7%; the “Absolute difference (95% CI), clinical status 0 (none)” value is 8.3%; the “Absolute difference (95% CI), clinical status mean” value is reported as −0.22. Also, in series [3] (n = 80), the “Clinical status on 7-point scale, mean (SD)” value is 0; the “Clinical status on 7-point scale: 0 (none), No. (%)” value is recorded as 80 (100); the “Clinical status on 7-point scale: Any nonzero value, No. (%)” value is 0. Further, in series [3] (n = 80, 100 mg 3 times daily for 15 days), the “Primary end point Clinical deterioration (met both criteria), No. (%)” value is given as 0.

Consider `COc1cc(Nc2ncc(F)c(Nc3ccc4c(n3)N(COP(=O)(O)O)C(=O)C(C)(C)O4)n2)cc(OC)c1OC` [Compound 35, fostamatinib], for which the “primary endpoint of safety” value in [4] (Phase II, oral twice-daily plus SOC for 14 days) is “met the primary endpoint of safety”. Besides, the “improvement in clinical status” value in series [4] (by day 15 and 29) is given as “superior to placebo”. Besides, the “outcome of intubated patients on mechanical ventilation” value in series [4] (two patients receiving drug) is “improved in seven days and were off the ventilator”. Moreover, the “chances of occurrence of serious adverse events” value in series [4] (vs placebo) is recorded as “halved”. The “number of days in the ICU” value in series [4] (vs seven in the placebo group) is recorded as “three”. For the same molecule, the deaths entry in series [4] (vs three deaths in the placebo arm) is “No deaths”.

Take `CC(C)c1nc(N(C)S(C)(=O)=O)nc(-c2ccc(F)cc2)c1/C=C/[C@@H](O)C[C@@H](O)CC(=O)O` [Compound 64, rosuvastatin]: in series [1], the “mortality in patients infected with COVID-19” value is given as “may reduce mortality”.

For the molecule `C[C@]12C=CC(=O)C=C1CC[C@H]1[C@@H]3C[C@@H](O)[C@](O)(C(=O)CO)[C@@]3(C)C[C@H](O)[C@@]12F` [Compound 72, triamcinolone], in series [5] (Cases (n = 60), day 5), the “bitter identified: NO (patients)” value is 7, the “bitter identified: YES (patients)” value was 53, the “salt identified: NO (patients)” value is on record as 10 and the “salt identified: YES (patients)” value is reported as 50. Also, in series [5] (Cases (n = 60), day 5), the “sour identified: NO (patients)” value is given as 10, the “sour identified: YES (patients)” value is on record as 50, the “sweet identified: NO (patients)” value is 5 and the “sweet identified: YES (patients)” value is given as 55. Further, the “recovery of sense of smell taste” value in series [5] (all anosmia and dysgeusia cases) is on record as “recovered their sense of smell taste within a week”. Further, in series [5] (oral paste, fifth day), the improved for bitter is 83.33%, the “improved for salty taste” value is on record as 83.33%, the “improved for sour taste” value is given as 83.34% and the improved for sweet is recorded as 91.67%.

For the molecule `Clc1ccc2c(c1)CCc1cccnc1C2=C1CCNCC1` [Compound 80, desloratadine], the “pseudotype entry (mean)” value in series [6] is 0.3.

Consider `OCc1c[nH]c2ccccc12` [Compound 110, indole-3-carbinol], for which the “SARS-CoV-2-induced CPE” value in series [7] (16.67 and 5.56 μM) is reported as “not affected”. Moreover, the “reduced the SARS-CoV-2-induced CPE” value in [7] (Vero E6, 50 μM, 72 h post-infection, vs DMSO) was “about 60%”. In series [7] (at the various concentrations tested), the virus yield reduction was 2 to 4 log.

Take `COC(=O)c1ccc2c(c1)NC(=O)/C2=C(\Nc1ccc(N(C)C(=O)CN2CCN(C)CC2)cc1)c1ccccc1` [Compound 134, nintedanib]: in series [8] (300 mg/day oral, managed with reduction to 200 mg/day), the “serum level of alanine aminotransferase (adverse event)” value is recorded as “became elevated”. In addition, in series [8] (FIG. 29-D), the “Ground-glass opacities of the lung (CT)” value is recorded as “mildly attenuated without further progression of pulmonary fibrosis”. Moreover, the “respiratory condition and exercise tolerance” value in [8] (after three months of rehabilitation with drug and tapering of prednisolone) is listed as “improved”. Moreover, in series [8] (in vivo), the other side effects entry is given as “No other side effects”. In addition, in series [8] (setting [19]), the vital capacity is 1.27 L and the “vital capacity per predicted” value was 61.7%.

With `COc1cc([C@@H]2c3cc4c(cc3[C@@H](O[C@@H]3O[C@@H]5CO[C@@H](C)O[C@H]5[C@H](O)[C@H]3O)[C@H]3COC(=O)[C@H]23)OCO4)cc(OC)c1O` [Compound 137, etoposide], the “PaO2/FiO2 ratio improved, average” value in series [9] (11 patients, 50-150 mg/m^2) is recorded as 195%. Moreover, in [9] (of 11 patients), the “patients fully recovered and discharged home” value is reported as “Nine”; the “patients needed mechanical ventilation” value is “Three”. Moreover, the patients died result in series [9] (of 11 patients, thrombotic complications) is “Two”.

Turning to `C[C@H]1[C@H](OC(=O)CCC(=O)O)O[C@@H]2O[C@@]3(C)CC[C@H]4[C@H](C)CC[C@@H]1[C@@]24OO3` [Compound 145, artesunate], the IC50 in series [10] was 53.1 µM; in series [11], 1.76 µM. The “Selectivity Index (SI)” value in [10] was greater than 1.885; in series [11], greater than 56.82. The CC50 in series [12] and in series [13] was greater than 100 µM throughout.

For the molecule `O=C1NCN(c2ccccc2)C12CCN(CCCC(c1ccc(F)cc1)c1ccc(F)cc1)CC2` [Compound 158, fluspirilene], the “Selectivity Index (SI)” value in series [14] (MOI 0.004) was 9.61; in series [14] (MOI 0.01) it was greater than 5.71. The IC50 in series [14] (MOI 0.004) is 6.36 µM; in series [14] (MOI 0.01) it was 5.32 µM. For the same molecule, the CC50 in series [15] (listed as MOI 0.004) and in series [15] (listed as MOI 0.01) was 30.3 µM each time.

As to `NC1(c2ccc(-c3nc4ccn5c(=O)[nH]nc5c4cc3-c3ccccc3)cc2)CCC1` [Compound 173, mk-2206], in series [16], the IC50 was 0.09 µM and the “Reducing Viral propagation” value is on record as 88%.

For `NCCCCNCCCN` [Reference Compound 2, spermidine], in [16], the IC50 was 149 µM and the “Reducing Viral propagation” value is 85%.

In the case of `O=C(Nc1ccc([N+](=O)[O-])cc1Cl)c1cc(Cl)ccc1O` [Reference Compound 3, niclosamide], in series [16], the IC50 is 17 µM and the “Reducing Viral propagation” value is listed as greater than 99%.

Consider `COc1ccc2nc3cc(Cl)ccc3c(Nc3cc(CN4CCCC4)c(O)c(CN4CCCC4)c3)c2n1` [Reference Compound 4, pyronaridine], for which the results for the IC50 in series [10] and in [11] were 1.08 µM and 6.41 µM, respectively. The “Selectivity Index (SI)” value in [10] was 34.22; in [11], 6.718. For the same molecule, the CC50 was 37.1 µM in [12] (Vero E6) and 43.1 µM in series [13] (Calu-3).

As to `CCN(CCO)CCCC(C)Nc1ccnc2cc(Cl)ccc12` (stereo not shown) [Reference Compound 5, hydroxychloroquine], the values for the IC50 in series [10] and in series [11] were 1.07 µM and 103 µM, respectively. The “Selectivity Index (SI)” value in series [10] is given as greater than 93.55; in series [11] it was greater than 0.972. The “decrease in viral load” value in [17] is recorded as 26.9 fold. The CC50 in series [12] (Vero E6) and in series [13] (Calu-3) was greater than 100 µM each time.

With `CC(=O)OCOC(=O)CN(CC(=O)OCOC(C)=O)c1ccccc1OCCOc1ccccc1N(CC(=O)OCOC(C)=O)CC(=O)OCOC(C)=O` [compound 15, BAPTA-AM], the “inhibition of SARS-CoV-2 replication” value in [18] was “significantly inhibit”.

On to `NCCOB(c1ccccc1)c1ccccc1` [compound 16], for which the “inhibition of SARS-CoV-2 replication” value in [18] is “significantly inhibit”.

maraviroc [Compound 170]: in series [17], the “decrease in viral load” value is 30.7 fold.
